Assay results: patent US5411964A, “Phenylalanine-glycine compounds having anti-tumor activity, process for preparation thereof, and pharmaceutical composition containing said compounds” (Kureha Chemical Industry Co., Ltd., priority 1992, dated 1995)

What was measured:
[1] = system: Sarcoma-180; assay: Antitumor activity: inhibition of solid Sarcoma-180 tumor implanted subcutaneously in ICR mice; assay type: in vivo; conditions: day 22, i.p. 10 times every other day, mg/kg: 5-Fu 15, MP 10, 5-CAU 10, Phe+5-Fu 15+15, Phe+MP 15+10, Phe+5-CAU 15+10, Phe-5-Fu 30, Phe'-5-Fu 30, Phe-MP 20, Phe-5-CAU 20; for Average tumor weight ± SD: control 3.438 ± 1.481, in g (unit assumed)
Procedure: The concentration of the solid tumor cells (Sarcoma-180) was aseptically adjusted to 1×10^6 /0.2 ml with a medium [prepared by filtering 10% bovine fetal serum-added MEM (Eagles' Minimum Essential Medium) for sterilization, and stored at 4° C.] and subcutaneously implanted at the axillas of ICR mice (5 weeks old; females; one group consisting of 10 mice). From the next day, the samples (0.15% physiological saline solution) shown in Table 1 were administered intraperitoneally 10 times every other day. On the 22nd day, the tumors were excised and the inhibition rate (IR) was obtained from the weight of the tumors. The inhibition rate (IR) (%) was calculated by the following formula: […]
wherein T is the average tumor weight of the treated group, and C is the average tumor weight of the control group.

[2] = system: pyruvate kinase M2-type isoenzyme; conditions: low concentration of L-phenylalanine; cited from earlier work
[3] = system: Wistar rats; assay: Acute toxicity, oral forced administration to Wistar rats; assay type: in vivo; conditions: 250 mg/kg by forced administration, fasted male Wistar rats, observed until 14 days
Procedure: (1) The conditions in the feeding chamber were arranged to a temperature of 23°±1° C., a relative humidity of 55±5%, a ventilation frequency of 20 times per hour, and a lighting term of 12 hours. Wistar rats (male; five-week old;. 120 to 141 g) were used. The rats were placed in metallic cages having wire walls in the front and bottom thereof, at the rate of 5 rats per one cage. They were allowed food (MF: Oriental Yeast) and water ad libitum.
The conjugate (I-1) of the present invention obtained from Example 1(5) was suspended in a 1.5% methylcellulose aqueous solution. The suspension was administered by force. The amount of the administration was 1 ml per 100 g body weight of animals forced to fast for 18 hours, that is, 250 mg/kg was administered. Symptoms of addiction and survival were observed hourly up to 8 hours after the administration, then twice a day until 14 days after administration.

Structure (SMILES): O=c1[nH]cc(N(CCCl)CCCl)c(=O)[nH]1 [5-CAU, 5-[bis(2-chloroethyl)amino]uracil, reference compound]
- IR (inhibition rate from tumor weight) [1]: 54.2%
- Average tumor weight ± SD [1]: 1.574 ± 1.285

Structure (SMILES): N[C@@H](Cc1ccc(N(CCCl)CCCl)cc1)C(=O)O [MP, Melphalan, reference compound]
- IR (inhibition rate from tumor weight) [1]: 60.5%
- Average tumor weight ± SD [1]: 1.358 ± 1.369

Structure (SMILES): CCOC(=O)C(NC(=O)[C@@H](N)Cc1ccccc1)n1cc(F)c(=O)[nH]c1=O (mixture of isomers) [Phe'-5-Fu, L-phenylalanyl-2-(5-fluorouracil-1-yl)-D,L-glycineethylester]
- IR (inhibition rate from tumor weight) [1]: 76.5%
- Average tumor weight ± SD [1]: 0.808 ± 0.389

Structure (SMILES): CCOC(=O)C(NC(=O)[C@@H](N)Cc1ccccc1)N[C@@H](Cc1ccc(N(CCCl)CCCl)cc1)C(=O)OC (stereo partly drawn) [Phe-MP, L-phenylalanyl-2-[p-(bis(2-chloroethyl)amino)-L-phenylalaninemethylester-2-yl]-D,L-glycineethylester]
- IR (inhibition rate from tumor weight) [1]: 72.6%
- Average tumor weight ± SD [1]: 0.943 ± 0.587

Structure (SMILES): N[C@@H](Cc1ccccc1)C(=O)O [L-phenylalanine]
- inhibition of M2-type isoenzyme of pyruvate kinase (in words) [2]: selectively inhibited

Structure (SMILES): N[C@@H](Cc1ccccc1)C(=O)NC(C(=O)O)n1cc(F)c(=O)[nH]c1=O (mixture of isomers) [Phe-5-Fu, L-phenylalanyl-2-(5-fluorouracil-1-yl)-D,L-glycine]
- Survival / death after administration [3]: No death was observed
- IR (inhibition rate from tumor weight) [1]: 77.6%
- Average tumor weight ± SD [1]: 0.770 ± 0.397

Structure (SMILES): N[C@@H](Cc1ccccc1)C(=O)NC(C(=O)O)n1cc(N(CCCl)CCCl)c(=O)[nH]c1=O (mixture of isomers) [Phe-5-CAU, L-phenylalanyl-2-[5-(bis(2-chloroethyl)amino)uracil-1-yl]-D,L-glycine]
- IR (inhibition rate from tumor weight) [1]: 75.2%
- Average tumor weight ± SD [1]: 0.854 ± 0.664

Structure (SMILES): O=c1[nH]cc(F)c(=O)[nH]1 [5-Fu, 5-fluorouracil, reference compound]
- IR (inhibition rate from tumor weight) [1]: 57.3%
- Average tumor weight ± SD [1]: 1.467 ± 1.437
